Assay results from patent publication US11945806B2, “Stabilization of amyloidogenic immunoglobulin light chains” (The Scripps Research Institute, priority 2019, dated 2024).

Target: WIL-FL (Homo sapiens, UniProt P01721)
Assay: Unlabeled LC Protease Sensitivity Assay (proteinase K)
Type: biochemical
Settings: small molecule 10 μM, WIL-FL 5 μM, proteinase K 50 nM, 2 hours at 37° C.
How it was run: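 WIL-FL light chain (5 μM) in PBS pH 7.4 + 0.02% Pluronic F-127 digested with proteinase K (50 nM) for 2 h at 37 °C with 10 μM compound (1% DMSO). Intact WIL-FL quantified by size-exclusion UPLC (A280). Fold protection = (A_compound−A_vehicle)/(A_no_protease−A_vehicle) from peak areas.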

SMILES | Protection (fold protection of LC from protease)
CCN(CC)c1ccc2c(C)c(CCNC(=O)NCc3cnc4ccccc4c3)c(=O)oc2c1 [Compound 288, 1-(2-(7-(diethylamino)-4-methyl-2-oxo-2H-chromen-3-yl)ethyl)-3-(quinolin-3-ylmethyl)urea] | B (3 ≤ B < 0.6)
CCN(CC)c1ccc2c(C)c(CCN3C(=O)NC4(CCN(S(=O)(=O)c5ccccc5)C4)C3=O)c(=O)oc2c1 (stereo not drawn) [Compound 201, 3-(2-(7-(diethylamino)-4-methyl-2-oxo-2H-chromen-3-yl)ethyl)-7-(phenylsulfonyl)-1,3,7-triazaspiro[4.4]nonane-2,4-dione] | B (3 ≤ B < 0.6)
C#CCN(CCC)c1ccc2c(C)cc(=O)oc2c1 [Compound 260, 4-methyl-7-(prop-2-yn-1-yl(propyl)amino)-2H-chromen-2-one] | A (A < 0.3))
CCN(CC)c1ccc2c(C)c(CCOC(=O)NCc3cccc(-c4cn[nH]c4)c3)c(=O)oc2c1 [Compound 164, 2-(7-(diethylamino)-4-methyl-2-oxo-2H-chromen-3-yl)ethyl (3-(1H-pyrazol-4-yl)benzyl)carbamate] | C (C ≥ 0.6)
C#CCN(CCC=C)c1ccc2c(C)cc(=O)oc2c1 [Compound 263, 7-(but-3-en-1-yl(prop-2-yn-1-yl)amino)-4-methyl-2H-chromen-2-one] | A (A < 0.3))
Cc1cc(=O)oc2cc(C(=O)Nc3ccc4ccccc4n3)ccc12 [Compound 233, 4-methyl-2-oxo-N-(quinolin-2-yl)-2H-chromene-7-carboxamide] | A (A < 0.3))
CCN(CC)c1ccc2c(C)c(CCN3C(=O)NC4(CCN(c5ncc(C(F)(F)F)cn5)CC4)C3=O)c(=O)oc2c1 [Compound 186, 3-(2-(7-(diethylamino)-4-methyl-2-oxo-2H-chromen-3-yl)ethyl)-8-(5-(trifluoromethyl)pyrimidin-2-yl)-1,3,8-triazaspiro[4.5]decane-2,4-dione] | A (A < 0.3))
CCN(CC)c1ccc2c(C)c(CCOC(=O)N3CCN(c4ccccn4)CC3)c(=O)oc2c1 [Compound 114, 2-(7-(diethylamino)-4-methyl-2-oxo-2H-chromen-3-yl)ethyl 4-(pyridin-2-yl)piperazine-1-carboxylate] | A (A < 0.3))
CCN(CC)c1ccc2c(C)c(CCOC(=O)NCc3ccc(C(=O)O)cc3)c(=O)oc2c1 [Compound 119, 4-((((2-(7-(diethylamino)-4-methyl-2-oxo-2H-chromen-3-yl)ethoxy)carbonyl)amino)methyl)benzoic acid] | B (3 ≤ B < 0.6)
CCN(CC)c1ccc2c(C)c(CCOC(=O)NCc3cccc(-c4c[nH]cn4)c3)c(=O)oc2c1 [Compound 141, 2-(7-(diethylamino)-4-methyl-2-oxo-2H-chromen-3-yl)ethyl (3-(1H-imidazol-4-yl)benzyl)carbamate] | C (C ≥ 0.6)
CCN(CC)c1ccc2c(C)c(CCOC(=O)NCCc3ccccn3)c(=O)oc2c1 [Compound 82, 2-(7-(diethylamino)-4-methyl-2-oxo-2H-chromen-3-yl)ethyl (2-(pyridin-2-yl)ethyl)carbamate] | A (A < 0.3))
C=CCN(C)c1ccc2c(C)cc(=O)oc2c1 [Compound 252, 7-(allyl(methyl)amino)-4-methyl-2H-chromen-2-one] | A (A < 0.3))
CCN(CC)c1ccc2c(C)c(CCOC(=O)NCC3CCN(C)CC3)c(=O)oc2c1 [Compound 148, 2-(7-(diethylamino)-4-methyl-2-oxo-2H-chromen-3-yl)ethyl ((1-methylpiperidin-4-yl)methyl)carbamate] | B (3 ≤ B < 0.6)
C=CCCN(C)c1ccc2c(C)cc(=O)oc2c1 [Compound 256, 7-(but-3-en-1-yl(methyl)amino)-4-methyl-2H-chromen-2-one] | A (A < 0.3))
CCOC(=O)N1CCC(NC(=O)OCCc2c(C)c3ccc(N(CC)CC)cc3oc2=O)CC1 [Compound 105, Ethyl 4-(((2-(7-(diethylamino)-4-methyl-2-oxo-2H-chromen-3-yl)ethoxy)carbonyl)amino)piperidine-1-carboxylate] | B (3 ≤ B < 0.6)
CCN(CC)c1ccc2c(C)c(CCN3C(=O)NC4(CCN(C(=O)c5cncnc5)CC4)C3=O)c(=O)oc2c1 [Compound 210, 3-(2-(7-(diethylamino)-4-methyl-2-oxo-2H-chromen-3-yl)ethyl)-8-(pyrimidine-5-carbonyl)-1,3,8-triazaspiro[4.5]decane-2,4-dione] | B (3 ≤ B < 0.6)
CCN(CC)c1ccc2c(C)c(CCN3C(=O)NC4(CCN(c5ccc(C(F)(F)F)cn5)CC4)C3=O)c(=O)oc2c1 [Compound 187, 3-(2-(7-(diethylamino)-4-methyl-2-oxo-2H-chromen-3-yl)ethyl)-8-(5-(trifluoromethyl)pyridin-2-yl)-1,3,8-triazaspiro[4.5]decane-2,4-dione] | A (A < 0.3))
Cc1cc(=O)oc2cc(C#N)ccc12 [Compound 224, 4-methyl-2-oxo-2H-chromene-7-carbonitrile] | A (A < 0.3))
CCN(CC)c1ccc2c(C)c(CCN3C(=O)NC4(CCN(C(=O)c5ncccn5)CC4)C3=O)c(=O)oc2c1 [Compound 206, 3-(2-(7-(diethylamino)-4-methyl-2-oxo-2H-chromen-3-yl)ethyl)-8-(pyrimidine-2-carbonyl)-1,3,8-triazaspiro[4.5]decane-2,4-dione] | A (A < 0.3))
CCN(CC)c1ccc2c(C)c(CCN3C(=O)NC4(CCN(S(=O)(=O)c5ccccc5)CC4)C3=O)c(=O)oc2c1 [Compound 200, 3-(2-(7-(diethylamino)-4-methyl-2-oxo-2H-chromen-3-yl)ethyl)-8-(phenylsulfonyl)-1,3,8-triazaspiro[4.5]decane-2,4-dione] | A (A < 0.3))
CCN(CC)c1ccc2c(C)c(CCOC(=O)NCCc3ccncc3)c(=O)oc2c1 [Compound 84, 2-(7-(diethylamino)-4-methyl-2-oxo-2H-chromen-3-yl)ethyl (2-(pyridin-4-yl)ethyl)carbamate] | A (A < 0.3))
CCN(CC)c1ccc2c(C)c(CCNC(=O)NCc3ccnc4ccccc34)c(=O)oc2c1 [Compound 287, 1-(2-(7-(diethylamino)-4-methyl-2-oxo-2H-chromen-3-yl)ethyl)-3-(quinolin-4-ylmethyl)urea] | A (A < 0.3))
Cc1cc(=O)oc2cc(N3CCCCC3)ccc12 [Compound 48, 4-methyl-7-(piperidin-1-yl)-2H-chromen-2-one] | A (A < 0.3))
CCN(CC)c1ccc2c(C)c(CCNC(=O)NCc3cccc4ccccc34)c(=O)oc2c1 [Compound 285, 1-(2-(7-(diethylamino)-4-methyl-2-oxo-2H-chromen-3-yl)ethyl)-3-(naphthalen-1-ylmethyl)urea] | A (A < 0.3))
